One assay concerns the target MAPK2K1 (MAP2K1) (Homo sapiens, UniProt Q02750). Briefly: LiP-Quant, HeLa lysate. In kind it is binding.
The target of assay [1] is CAMK2G (KCC2G_HUMAN, Calcium/calmodulin-dependent protein kinase type II subunit gamma) (Homo sapiens, UniProt Q13555). The assay can be described thus: LiP-Quant, HeLa lysate. In kind it is binding. The settings on record: staurosporine sheet; peptide NLINQMLTINPAK; LIPRank 5.
The target in assay [2] is KS6A3_HUMAN (Ribosomal protein S6 kinase alpha-3) (Homo sapiens, UniProt P51812). Briefly: LiP-Quant, HeLa lysate. In kind it is binding.
Sequence of KS6A3_HUMAN (Ribosomal protein S6 kinase alpha-3) (P51812 whole entry): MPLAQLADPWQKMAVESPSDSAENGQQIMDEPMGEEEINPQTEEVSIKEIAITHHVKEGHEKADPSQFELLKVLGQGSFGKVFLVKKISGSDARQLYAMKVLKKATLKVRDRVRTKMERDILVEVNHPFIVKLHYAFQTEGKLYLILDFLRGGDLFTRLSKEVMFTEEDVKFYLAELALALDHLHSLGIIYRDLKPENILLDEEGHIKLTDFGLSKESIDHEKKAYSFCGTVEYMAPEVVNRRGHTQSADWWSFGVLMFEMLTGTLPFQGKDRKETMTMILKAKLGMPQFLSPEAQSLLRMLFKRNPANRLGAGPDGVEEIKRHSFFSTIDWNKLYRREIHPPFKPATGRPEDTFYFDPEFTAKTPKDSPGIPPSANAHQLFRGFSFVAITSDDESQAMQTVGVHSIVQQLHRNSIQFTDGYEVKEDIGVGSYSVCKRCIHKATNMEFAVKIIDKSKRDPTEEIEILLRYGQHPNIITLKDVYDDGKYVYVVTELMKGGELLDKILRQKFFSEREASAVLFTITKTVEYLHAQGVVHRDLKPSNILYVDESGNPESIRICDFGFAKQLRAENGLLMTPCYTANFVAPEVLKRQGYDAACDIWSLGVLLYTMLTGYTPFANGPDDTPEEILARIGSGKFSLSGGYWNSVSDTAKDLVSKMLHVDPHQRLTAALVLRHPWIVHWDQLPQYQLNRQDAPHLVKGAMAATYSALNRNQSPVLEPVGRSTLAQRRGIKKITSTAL
In assay [3] the target is SRPK1_HUMAN (SRSF protein kinase 1) (Homo sapiens, UniProt Q96SB4). Briefly: LiP-Quant, HeLa lysate. In kind it is binding.
Sequence of SRPK1_HUMAN (SRSF protein kinase 1) (Q96SB4 whole entry): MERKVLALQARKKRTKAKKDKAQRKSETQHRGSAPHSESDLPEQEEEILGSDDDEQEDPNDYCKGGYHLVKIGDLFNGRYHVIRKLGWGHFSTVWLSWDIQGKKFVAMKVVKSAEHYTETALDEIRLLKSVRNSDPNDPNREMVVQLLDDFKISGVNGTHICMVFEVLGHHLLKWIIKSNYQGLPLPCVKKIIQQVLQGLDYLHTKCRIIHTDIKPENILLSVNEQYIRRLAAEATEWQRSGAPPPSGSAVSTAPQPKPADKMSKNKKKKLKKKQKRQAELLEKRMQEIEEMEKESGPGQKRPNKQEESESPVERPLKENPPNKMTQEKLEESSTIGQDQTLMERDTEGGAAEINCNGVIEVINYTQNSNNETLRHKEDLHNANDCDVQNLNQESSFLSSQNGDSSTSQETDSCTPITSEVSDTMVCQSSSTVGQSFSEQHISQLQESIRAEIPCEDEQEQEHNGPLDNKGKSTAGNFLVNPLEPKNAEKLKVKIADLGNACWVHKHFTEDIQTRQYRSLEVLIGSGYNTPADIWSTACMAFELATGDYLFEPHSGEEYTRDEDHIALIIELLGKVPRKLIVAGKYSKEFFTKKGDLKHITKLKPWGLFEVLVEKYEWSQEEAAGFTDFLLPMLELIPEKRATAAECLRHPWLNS
The next assay concerns the target EIF2AK2 (Homo sapiens, UniProt P19525). Briefly: Deep LiP-Quant (4h gradient), HeLa lysate. In kind it is binding.
The target of a further assay is RPS6KA3 (Homo sapiens, UniProt P51812). Briefly: Deep LiP-Quant (4h gradient), HeLa lysate. In kind it is binding.
Sequence of RPS6KA3 (P51812 whole entry): as the sequence (P51812 whole entry) above
Assay [4] concerns the target CAMK2G (Calcium/calmodulin-dependent protein kinase type II subunit gamma, KCC2G_HUMAN) (Homo sapiens, UniProt Q13555). The assay can be described thus: LiP-Quant, HeLa lysate. In kind it is binding. To be noted: peptide NLINQMLTINPAK
The target of a further assay is NEK9 (Homo sapiens, UniProt Q8TD19). The assay can be described thus: Deep LiP-Quant (4h gradient), HeLa lysate.
Sequence of NEK9 (Q8TD19 whole entry): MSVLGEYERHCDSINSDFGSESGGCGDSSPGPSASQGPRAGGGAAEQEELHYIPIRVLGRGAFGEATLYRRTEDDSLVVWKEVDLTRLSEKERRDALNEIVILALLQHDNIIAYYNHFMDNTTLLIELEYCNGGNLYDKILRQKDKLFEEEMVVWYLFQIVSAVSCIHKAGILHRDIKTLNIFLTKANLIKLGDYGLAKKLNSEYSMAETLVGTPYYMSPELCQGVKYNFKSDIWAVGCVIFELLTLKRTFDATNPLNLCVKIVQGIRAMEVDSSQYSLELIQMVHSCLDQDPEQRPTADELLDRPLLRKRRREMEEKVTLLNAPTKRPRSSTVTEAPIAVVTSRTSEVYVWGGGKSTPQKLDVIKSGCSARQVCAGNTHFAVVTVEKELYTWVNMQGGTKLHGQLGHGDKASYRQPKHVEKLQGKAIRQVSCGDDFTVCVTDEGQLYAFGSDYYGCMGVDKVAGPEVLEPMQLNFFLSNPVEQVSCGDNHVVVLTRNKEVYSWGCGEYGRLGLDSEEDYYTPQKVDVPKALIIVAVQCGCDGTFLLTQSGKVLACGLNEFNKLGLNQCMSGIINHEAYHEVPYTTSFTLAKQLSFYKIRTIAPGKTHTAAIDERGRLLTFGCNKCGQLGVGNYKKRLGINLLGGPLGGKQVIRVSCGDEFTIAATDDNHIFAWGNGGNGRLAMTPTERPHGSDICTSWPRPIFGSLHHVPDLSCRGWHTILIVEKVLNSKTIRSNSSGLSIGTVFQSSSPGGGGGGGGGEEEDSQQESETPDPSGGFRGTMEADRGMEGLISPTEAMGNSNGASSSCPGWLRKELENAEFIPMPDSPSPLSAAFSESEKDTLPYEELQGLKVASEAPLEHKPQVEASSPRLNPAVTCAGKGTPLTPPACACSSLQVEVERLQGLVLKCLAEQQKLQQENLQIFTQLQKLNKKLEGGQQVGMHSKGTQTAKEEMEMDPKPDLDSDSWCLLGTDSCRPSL
In assay [5] the test system is KS6A2_HUMAN (Ribosomal protein S6 kinase alpha-2).
For another assay, the system named is Botrytis cinerea. Briefly: Cell viability (IC50) assay, inhibition of cell growth by optical density. To be noted: three days, Rep 1-3.
In assay [6] the target is Bcin06g02870 (predicted casein kinase I homolog) (Botrytis cinerea, UniProt A0A384JJQ0). Briefly: LiP-Quant, Botrytis cinerea lysate. In kind it is binding. The text has this:
Given its abilities to identify and characterize drug targets and their binding sites, we applied LiP-Quant to a research fungicide compound with an unknown target (BAYE-004, Fig. 4a).

In assay [7] the target is T1, Botrytis cinerea MBP-CK1 recombinant enzyme (MBP-tagged Bcin06g02870) (Botrytis cinerea, UniProt A0A384JJQ0).
T1 sequence (A0A384JJQ0 1-368): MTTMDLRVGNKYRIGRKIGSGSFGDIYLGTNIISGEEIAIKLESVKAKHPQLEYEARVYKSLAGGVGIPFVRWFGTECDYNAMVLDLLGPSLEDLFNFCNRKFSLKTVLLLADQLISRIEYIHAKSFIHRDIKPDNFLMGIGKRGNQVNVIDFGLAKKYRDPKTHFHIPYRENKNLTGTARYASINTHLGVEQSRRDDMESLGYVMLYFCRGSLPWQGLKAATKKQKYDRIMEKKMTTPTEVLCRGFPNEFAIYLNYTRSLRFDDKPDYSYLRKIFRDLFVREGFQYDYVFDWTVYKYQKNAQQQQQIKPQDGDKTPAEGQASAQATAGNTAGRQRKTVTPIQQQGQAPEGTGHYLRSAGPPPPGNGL
The assay can be described thus: CK1 kinase assay (LANCE Ultra TR-FRET). To be noted: for % Inhibition of CK-1: rep 1, rep2. In kind it is biochemical. The text has this:
We calculated the center of mass of the #6 and #7 ranking LiP-Quant peptides to estimate the position of the BAYE-004 binding site within Bcin06g02870. Here we considered two LiP-Quant peptides for the center of mass calculation, as there were only two high scoring LiP-Quant peptides that could be used. The putative binding site of the drug maps in the ATP-binding site of Bcin06g02870, which is also a common binding site for kinase inhibitors (Fig. 4e, Supplementary Data 3). Finally, we performed a LANCE Ultra kinase assay (Perkin Elmer) to measure the phosphorylation activity on a peptide substrate of a purified MBP-tagged version of Bcin06g02870.
The LANCE Ultra time resolved fluorescence resonance energy transfer (Tr-FRET) kinase assay (Perkin Elmer, #TRF0300-C) protocol was used according to manufacturer’s instructions with adaptations made for the following conditions. […] The reaction was performed in duplicates in the dark at 30 °C for 90 min. Plates were read in a Victor2 Perkin plate reader (excitation 340 nm/emission 665 nm).

Assay [8] concerns the target Bcin16g04330 (predicted glycogen synthase kinase-3β homolog) (Botrytis cinerea, UniProt A0A384K7E5). The assay can be described thus: LiP-Quant, Botrytis cinerea lysate. To be noted: read-out: extrapolated average EC50; top two ranking LiP-Quant peptides.
The subject of the next assay is His-tagged Bcin06g02870. Briefly: Cellular thermal shift assay (CETSA), western blot. In kind it is cell-based, Botrytis cinerea. To be noted: in vivo treatment, 56 °C. As to the method:
Botrytis cinerea BO47 (CK1 His-Tagged) cell suspension was adjusted to 1 × 10^6 sp/ml GYPm and incubated for 24 h at 21 °C (110 rpm). […] Cells were harvested by filtration (100 µm) and rinsed with 15 ml of ice-cold HEPES buffer (0.1 M HEPES, 50 mM NaCl, pH 7.5). Harvested mycelium was resuspended in 3.5 ml HEPES buffer and kept on ice. 500 µl of each concentration was transferred to a 2 ml Eppendorf tube and heated to 56 °C on a thermoshaker for 3 min, an additional aliquot from each concentration was left unheated. After heating, cells were kept on ice for 3 min, snap frozen in liquid nitrogen, lyophilized overnight and then stored at −80 °C until protein extraction.
Lyophilized mycelium was lysed using a Retsch mixer mill (MM 400) with 3 mm tungsten carbide beads (30 Hz for 3 s, two cycles), then 500 µl of cold protein extraction buffer (50 mM HEPES, 50 mM NaCl, 0.4% NP-40) was added. Lysate was incubated for 10 min at 25 °C, centrifuged (10 min, 14,000g) and the supernatant was retained. The lysate was further centrifuged (20 min, 73,400g) to eliminate insoluble proteins. The supernatant was collected, and protein concentration was determined using the Qubit protein assay kit (#Q33211) and stored at −20 °C.
Target engagement was assessed by western blot. […] The membrane (target protein) and gel (loading control) were imaged using a ChemiDocXRS camera and quantified using ImageJ[43]. […]

The mark [9] stands for this setting: peptide LPSGVFSL, MAP2K1 (Q02750).
[10] abbreviates: peptide VLGQGSFGK, RPS6KA3 (P51812).
[11] abbreviates: protein level, experiment LiP-Quant.
Where [12] appears, read: peptide STAGNFLVNPLEPK, SRPK1 (Q96SB4).

Values joined by “and” are separate entries in the source; they are usually repeats but may differ in a detail not shown here. Equal entries are not always repeated. Where two headings read alike, the source gives them in different places.

Sequence of CAMK2G (Calcium/calmodulin-dependent protein kinase type II subunit gamma, KCC2G_HUMAN) (Q13555 whole entry): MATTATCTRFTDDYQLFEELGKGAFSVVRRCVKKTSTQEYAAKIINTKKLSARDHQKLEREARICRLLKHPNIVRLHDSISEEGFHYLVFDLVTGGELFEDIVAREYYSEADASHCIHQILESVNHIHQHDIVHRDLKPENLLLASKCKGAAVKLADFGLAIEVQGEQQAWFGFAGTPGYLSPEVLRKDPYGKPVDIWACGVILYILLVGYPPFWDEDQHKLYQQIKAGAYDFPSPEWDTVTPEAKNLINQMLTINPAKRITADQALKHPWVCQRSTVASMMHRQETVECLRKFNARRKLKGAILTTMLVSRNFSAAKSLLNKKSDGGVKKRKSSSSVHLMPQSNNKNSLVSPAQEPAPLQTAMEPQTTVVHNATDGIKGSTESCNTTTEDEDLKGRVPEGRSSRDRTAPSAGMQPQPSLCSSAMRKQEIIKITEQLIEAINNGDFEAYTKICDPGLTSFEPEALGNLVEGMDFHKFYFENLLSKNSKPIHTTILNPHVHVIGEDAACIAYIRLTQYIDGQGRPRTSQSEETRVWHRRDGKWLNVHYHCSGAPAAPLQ
Sequence of MAPK2K1 (MAP2K1) (Q02750 whole entry): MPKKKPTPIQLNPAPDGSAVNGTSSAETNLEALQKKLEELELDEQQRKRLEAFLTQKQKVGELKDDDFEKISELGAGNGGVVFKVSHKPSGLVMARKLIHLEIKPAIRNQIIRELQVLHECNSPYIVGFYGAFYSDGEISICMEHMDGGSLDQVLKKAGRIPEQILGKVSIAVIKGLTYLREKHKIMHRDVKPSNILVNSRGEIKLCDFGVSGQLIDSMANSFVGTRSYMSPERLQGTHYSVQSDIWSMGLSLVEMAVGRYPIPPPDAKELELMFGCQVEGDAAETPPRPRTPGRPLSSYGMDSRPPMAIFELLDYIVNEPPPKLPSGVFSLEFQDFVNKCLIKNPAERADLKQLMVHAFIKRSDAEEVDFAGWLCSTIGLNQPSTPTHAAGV
Sequence of EIF2AK2 (P19525 whole entry): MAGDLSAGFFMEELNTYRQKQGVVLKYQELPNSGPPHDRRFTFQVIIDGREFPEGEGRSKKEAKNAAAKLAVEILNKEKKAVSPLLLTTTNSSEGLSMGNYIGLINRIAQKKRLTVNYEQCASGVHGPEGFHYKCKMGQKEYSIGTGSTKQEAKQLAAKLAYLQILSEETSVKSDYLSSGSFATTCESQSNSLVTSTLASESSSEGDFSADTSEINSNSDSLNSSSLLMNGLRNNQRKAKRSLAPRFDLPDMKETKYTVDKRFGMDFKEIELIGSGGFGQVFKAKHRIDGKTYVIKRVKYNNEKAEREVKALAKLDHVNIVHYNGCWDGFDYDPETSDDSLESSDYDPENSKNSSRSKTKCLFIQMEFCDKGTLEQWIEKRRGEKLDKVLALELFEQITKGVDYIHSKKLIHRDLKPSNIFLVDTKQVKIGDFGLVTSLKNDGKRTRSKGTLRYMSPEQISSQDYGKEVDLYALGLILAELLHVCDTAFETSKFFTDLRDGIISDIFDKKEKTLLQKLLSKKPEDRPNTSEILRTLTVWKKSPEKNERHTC
Sequence of Bcin16g04330 (predicted glycogen synthase kinase-3β homolog) (A0A384K7E5 1-398): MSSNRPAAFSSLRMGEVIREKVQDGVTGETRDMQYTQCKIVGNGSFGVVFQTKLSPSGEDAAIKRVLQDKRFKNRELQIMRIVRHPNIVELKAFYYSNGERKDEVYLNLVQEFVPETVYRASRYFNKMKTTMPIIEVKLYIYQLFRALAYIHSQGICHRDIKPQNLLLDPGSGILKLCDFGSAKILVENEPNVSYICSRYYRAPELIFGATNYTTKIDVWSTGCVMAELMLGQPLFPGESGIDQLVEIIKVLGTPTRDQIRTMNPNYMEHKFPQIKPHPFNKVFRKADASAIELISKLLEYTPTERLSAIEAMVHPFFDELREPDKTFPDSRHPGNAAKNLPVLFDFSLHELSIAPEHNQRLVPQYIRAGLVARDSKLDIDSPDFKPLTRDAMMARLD
Sequence of CAMK2G (KCC2G_HUMAN, Calcium/calmodulin-dependent protein kinase type II subunit gamma) (Q13555 whole entry): as the sequence (Q13555 whole entry) above

Regarding `CN[C@@H]1C[C@H]2O[C@@](C)([C@@H]1OC)n1c3ccccc3c3c4c(c5c6ccccc6n2c5c31)C(=O)NC4` [Staurosporine], the DRC on MAPK2K1 (MAP2K1) (setting [9]) was 0.9366; in [2] (setting [10]) it was 0.9262; in assay [3] (setting [12]) it was 0.9525; in assay [4] it was 0.9333. For the same compound, the LIPRank was determined as 2 on MAPK2K1 (MAP2K1) (setting [9]); 2 at MAPK2K1 (MAP2K1) (peptide VSIAVIK (selumetinib sheet) or protein level (Supp Data 7)); 4 in [2] (setting [10]); 4 in [2] (setting [11]); 1 in [3] (setting [12]); 1 in assay [3] (setting [11]). For the same compound, the LIPRank at EIF2AK2 (protein level) was determined as 2; on RPS6KA3 (protein level), 3; in assay [4] it was 5; on NEK9 (protein level) it was 4. For the same compound, the LIPscore at MAPK2K1 (MAP2K1) (peptide VSIAVIK (selumetinib sheet) or best peptide of the protein (Supp Data 7)) was determined as 2.822; at MAPK2K1 (MAP2K1) (staurosporine sheet, peptide LPSGVFSL, LIPRank 2), 2.822; in assay [1], 2.655; in [2] (setting [11]), 2.665; in assay [2] (staurosporine sheet, peptide VLGQGSFGK, LIPRank 4), 2.665; in assay [3] (setting [11]), 3.113. The LIPscore in assay [3] (staurosporine sheet, peptide […], LIPRank 1) worked out at 3.113; in assay [4], 2.655; in [5] (setting [11]), 2.777; in [5] (staurosporine sheet, peptide […], LIPRank 3) it was 2.777. Further, the LiP Score was 4.708 at EIF2AK2 (peptide IGDFGLVTSLK), 4.635 on RPS6KA3 (peptide ADPSQFELLK) and 4.511 on NEK9 (peptide GAFGEATLYR).

With `CCC(=O)Nc1cc(-c2c(-c3ccc(F)cc3)nn3c2CCC3)ccn1` [BAYE-004], in the assay with Botrytis cinerea (Botrytis cinerea, 72 h, read-out: Inhibition of growth, Dose 0.40745 uM), the inhibition at 0.40745 µM amounted to 76.8%. For the same compound, in the assay with Botrytis cinerea (Botrytis cinerea, 72 h, read-out: Inhibition of growth, Dose 1.22234 uM), the inhibition at 1.22234 µM was 82.5%. For the same compound, the Inhibition of growth in the assay with Botrytis cinerea (Dose 0.40745 uM) is 76.882 and 79.9248; in the assay on Botrytis cinerea (Dose 1.22234 uM), 82.7279 and 79.8427. For the same compound, the “EC50 lower than EC50 of the rest of the LiP-Quant peptides above the 1.5 threshold” value in [6] is “approximately 1000 fold”. For the same compound, the 50% effective concentration (EC50) was 6 nM and 5 nM in assay [6] (two peptides, LiP-Quant rank #6 and #7); 1600 nM in assay [8]. For the same compound, the “% Inhibition of CK-1” value is 92% and 90% in assay [7] (concentration 1,00E-04 (unit not given)); 98% and 105% in [7] (concentration 1,00E-05 (unit not given)); 99% and 101% in assay [7] (concentration 1,00E-06 (unit not given)); 84% and 91% in assay [7] (concentration 1,00E-07 (unit not given)); 53% and 50% in assay [7] (concentration 1,00E-08 (unit not given)); 9% in assay [7] (concentration 1,00E-09 (unit not given)). Besides, the IC50 in assay [7] (read-out: IC50 (% Inhibition of CK-1)) turned out to be 12.5 nM. Besides, in the assay with His-tagged Bcin06g02870, the “thermal stability upon treatment” value is given as “thermally stabilized”.
